Values after ≈ are worked out from the molar mass of the structure shown.
Columns and labels:
Format in all cases: cell-based
[1] = tested on: E. coli (American Type Culture Collection ATCC 25922); test: Minimum inhibitory concentration (MIC) test; conditions: E. coli ATCC 25922; 24 h culture
Protocol: (§1) The minimum inhibitory concentration (MIC) is the lowest concentration of antibacterial agents that can inhibit the visible growth of bacteria after 24 h culture in a specific environment. Methods for determining the minimum inhibitory concentration can be a constant broth dilution method, a trace broth dilution method, an agar dilution method or an E experiment.

[2] = tested on: S. aureas (ATCC 6538); test: Minimum inhibitory concentration (MIC) test; conditions: 24 h culture
Protocol: as §1

[3] = tested on: E. coli; test: Durable antibacterial activity of glass surfaces modified by antibacterial agents (plate/colony counting method)
[4] = tested on: S. aureas; test: as above

Structure (SMILES)	Minimum inhibitory concentration (MIC) [1] [mM]	Minimum inhibitory concentration (MIC) [2] [mM]	Antibacterial activity of modified glass surface (plate counting method) ([3]; wash number 0) [%]	Antibacterial activity of modified glass surface (plate counting method) ([3]; wash number 10) [%]	Antibacterial activity of modified glass surface (plate counting method) ([3]; wash number 50) [%]	Antibacterial activity of modified glass surface (plate counting method) ([3]; wash number 100) [%]	Antibacterial activity of modified glass surface (plate counting method) ([4]; wash number 0) [%]	Antibacterial activity of modified glass surface (plate counting method) ([4]; wash number 10) [%]	Antibacterial activity of modified glass surface (plate counting method) ([4]; wash number 50) [%]	Antibacterial activity of modified glass surface (plate counting method) ([4]; wash number 100) [%]
C[N+](C)(CCOC(=O)NCCCCCCN=C=O)CC(=O)[O-] [Example 3]	11 (≈ 3470 µg/mL)	8 (≈ 2520 µg/mL)	99.99	99.8	98.5	96.5	99.99	99.9	99.0	97.2
CC1(C)CC(NC(=O)OCC[N+](C)(C)CCCC(=O)[O-])CC(C)(CN=C=O)C1 (stereo not drawn) [Example 11]	10 (≈ 3980 µg/mL)	8 (≈ 3180 µg/mL)	99.99	99.8	97.1	94.5	99.99	99.9	98.3	95.8
CC[N+](CC)(CCCS(=O)(=O)[O-])CCOC(=O)Nc1ccc(Cc2ccc(N=C=O)cc2)cc1 [Example 2]	12 (≈ 5880 µg/mL)	10 (≈ 4900 µg/mL)	99.99	99.9	97.3	95.9	99.99	99.9	98.9	96.6
C[N+](C)(CCCS(=O)(=O)[O-])CCNC(=O)NC1CCC(CC2CCC(N=C=O)CC2)CC1 (stereo not drawn) [Example 5]	10 (≈ 4730 µg/mL)	7 (≈ 3310 µg/mL)	99.99	99.7	99.0	96.5	99.99	99.9	99.5	98.5
CC1(C)CC(NC(=O)OCC[N+](C)(C)CCS(=O)(=O)[O-])CC(C)(CN=C=O)C1 (stereo not drawn) [Example 10]	12 (≈ 5030 µg/mL)	9 (≈ 3780 µg/mL)	99.99	99.8	97.5	94.1	99.99	99.9	98.9	95.3
Cc1cc(NC(=O)NC2CC(C)(C)CC(C)(CN=C=O)C2)cc(C)[n+]1CCCS(=O)(=O)[O-] (stereo not drawn) [Example 9]	10 (≈ 4670 µg/mL)	8 (≈ 3730 µg/mL)	99.99	99.8	97.1	94.3	99.99	99.9	98.5	95.2

Source: patent US11044908B2, “Reactive antibacterial compound and preparation method thereof” (SHENZHEN UNIVERSITY, priority 2015, dated 2021)
